Test system: GA-primed murine splenocytes
Experiment: Tolerance method for assessing process variability

glatiramer acetate [GA]
AVG expression D8ERTD82E (probe ILMN_2731237): 8.974 | AVG expression MYO1F (probe ILMN_2731760): 8.593 | AVG expression CDC42EP3 (probe ILMN_2733185): 8.258 | AVG expression TLR2 (probe ILMN_2733733): 8.191 | AVG expression IL4I1 (probe ILMN_2733778): 13.39 | AVG expression CD1D1 (probe ILMN_2734212): 8.262 | AVG expression RAMP1 (probe ILMN_2734391): 7.212 | AVG expression ISG20 (probe ILMN_2735615): 8.139 | AVG expression IL4RA (probe ILMN_2738433): 6.897 | AVG expression PDE2A (probe ILMN_2740407): 6.704 | AVG expression NDRG3 (probe ILMN_2740628): 7.26 | AVG expression IL17F (probe ILMN_2741201): 9.282 | AVG expression NUPR1 (probe ILMN_2742042): 7.513 | AVG expression CSRP3 (probe ILMN_2742068): 7.26 | AVG expression SERPINA3F (probe ILMN_2742861): 9.63 | AVG expression MATK (probe ILMN_2743902): 6.954 | AVG expression GADD45G (probe ILMN_2744890): 10.65 | AVG expression DOCK10 (probe ILMN_2749063): 7.866 | AVG expression CSF2 (probe ILMN_2749412): 7.94 | AVG expression SPATA13 (probe ILMN_2751037): 10.49 | AVG expression 4931429111RIK (probe ILMN_2751111): 6.944 | AVG expression PHXR4 (probe ILMN_2751603): 8.973 | AVG expression 2210010N04RIK (probe ILMN_2752436): 7.364 | AVG expression TGTP (probe ILMN_2754158): 7.894 | AVG expression LTF (probe ILMN_2754364): 8.257 | AVG expression CD84 (probe ILMN_2754698): 9.661 | AVG expression FFAR2 (probe ILMN_2756046): 9.337 | AVG expression D7BWG0611E (probe ILMN_2756438): 6.424 | AVG expression ENO3 (probe ILMN_2757569): 8.71 | AVG expression BC031353 (probe ILMN_2757807): 9.011 | AVG expression PRTN3 (probe ILMN_2758029): 6.472 | AVG expression SYPL (probe ILMN_2758720): 11.58 | AVG expression TMEM66 (probe ILMN_2758878): 8.06 | AVG expression CLIC4 (probe ILMN_2761109): 11.63 | AVG expression LOC100041103 (probe ILMN_2761720): 7.612 | AVG expression TBX21 (probe ILMN_2762983): 8.48 | AVG expression BC032203 (probe ILMN_2763739): 10.17 | AVG expression ASB2 (probe ILMN_2765759): 8.795 | AVG expression CAMP (probe ILMN_2766604): 8.176 | AVG expression OCIAD2 (probe ILMN_2766875): 6.716 | AVG expression ATP1B1 (probe ILMN_2767615): 7.592 | AVG expression IFI30 (probe ILMN_2767918): 10.97 | AVG expression PIK3IP1 (probe ILMN_2769772): 7.746 | AVG expression TIMP1 (probe ILMN_2769918): 6.577 | AVG expression LOC100044439 (probe ILMN_2770066): 9.229 | AVG expression IGH-VJ558 (probe ILMN_2772264): 10.58 | AVG expression GLIPR2 (probe ILMN_2773900): 10.63 | AVG expression HSD11B1 (probe ILMN_2774160): 8.176 | AVG expression STFA1 (probe ILMN_2774410): 8.3801 | AVG expression HIST1H1C (probe ILMN_2774537): 8.165 | AVG expression SPO11 (probe ILMN_2777019): 6.908 | AVG expression GCAT (probe ILMN_2777696): 8.955 | AVG expression H2-DMA (probe ILMN_2777769): 12.53 | AVG expression LTA (probe ILMN_2780247): 8.582 | AVG expression CSRP3 (probe ILMN_2789650): 7.602 | AVG expression CD177 (probe ILMN_2789900): 6.628 | AVG expression IFNG (probe ILMN_2791459): 9.711 | AVG expression RFTN2 (probe ILMN_2795178): 7.218 | AVG expression IL12RB1 (probe ILMN_2799452): 7.405 | AVG expression S100A9 (probe ILMN_2803674): 11.05 | AVG expression TMEM108 (probe ILMN_2804559): 7.473 | AVG expression PRM1 (probe ILMN_2806549): 6.894 | AVG expression ACOT7 (probe ILMN_2807084): 9.352 | AVG expression 3110001A13RIK (probe ILMN_2807335): 8.958 | AVG expression PPIC (probe ILMN_2810882): 8.651 | AVG expression LBH (probe ILMN_2816180): 11.09 | AVG expression CPNE4 (probe ILMN_2818246): 7.052 | AVG expression DUSP10 (probe ILMN_2818964): 8.287 | AVG expression SC4MOL (probe ILMN_2823778): 9.801 | AVG expression USP28 (probe ILMN_2828768): 7.665 | AVG expression C330023M02RIK (probe ILMN_2833243): 9.988 | AVG expression C330023M02RIK (probe ILMN_2833248): 8.672 | AVG expression BRWD1 (probe ILMN_2834573): 7.683 | AVG expression EG634650 (probe ILMN_2837493): 6.736 | AVG expression ACTN1 (probe ILMN_2844996): 9.845 | AVG expression PSAP (probe ILMN_2845080): 11.88 | AVG expression KLHDC2 (probe ILMN_2845272): 12.06 | AVG expression ACTB (probe ILMN_2846865): 9.645 | AVG expression HIF1A (probe ILMN_2852034): 7.906 | AVG expression TSPAN32 (probe ILMN_2852672): 9.543 | AVG expression HIST1H1C (probe ILMN_2855315): 8.506 | AVG expression GPR114 (probe ILMN_2856926): 9.59 | AVG expression GBP6 (probe ILMN_2860645): 9.559 | AVG expression GBP6 (probe ILMN_2860649): 8.264 | AVG expression RHOD (probe ILMN_2862379): 6.304 | AVG expression FCER1A (probe ILMN_2863390): 7.15 | AVG expression OTTMUSG00000000971 (probe ILMN_2864309): 7.999
